According to patent publication US5047419A, “Photodynamic therapy of glioma or mammary carcinoma using seleno- or telluropyrylium salts” (Eastman Kodak Company, priority 1988, dated 1991):

Columns and labels:
[1] = Quantum efficiency of singlet oxygen generation in air-saturated solution; format: physicochemical
Description: (§1) The ability of the dyes of this invention to function as a cancer-treating agent is in part a reflection of the ability of the dye to generate singlet oxygen in air-saturated solution. (As used herein, "air-saturated solution" means a solution of dye exposed to the atmosphere.) In studying a variety of chalcogenopyrylium dyes, only those dyes containing a selenium or tellurium atom show any appreciable generation of singlet oxygen upon irradiation. Fortuitously, selenopyrylium and telluropyrylium dyes have absorption maxima that are shifted to the red relative to their pyrylium and thiopyrylium analogues. That is, not only are these dyes effective in killing cancer cells because of their high quantum efficiency, but also they generally operate at the most preferred wavelengths, namely those of 700 nm or longer. Table III contains examples of chalcogenopyrylium dyes, their quantum efficiencies for singlet oxygen generation, and their absorption maxima. (In this Table, Ph=Phenyl, Me=Methyl, and t-Bu=tertiary butyl.)

[2] = Absorption maxima (λmax) of chalcogenopyrylium dyes; format: physicochemical
Description: as §1

[3] = Distribution of Dye 1 in organ tissues of glioma (RT-1) bearing rats; format: in vivo, rat
Experimental: Dye 1 of Table 1 was delivered to glioma sites in rat brains, such sites having been achieved by implanting RT-1 rat glioma cancer cells into the brains of twenty-four 400 g rats. Stock solutions of Dye 1 at 1 mM concentration were prepared by dissolving the dye in a minimal amount of 95% ethanol and diluting with phosphate buffered saline to 1 mM. RT-1 glioma cells were injected into the cortex of the rats at day 0. Treatment with the dye was done at day 12. A quantity of the stock solution sufficient to deliver 1.5 mg (2.5 μmol) of Dye 1 per rat (approximately2 mL) was delivered by femoral artery or carotid artery injection. The animals were sacrificed at the indicated times, the indicated tissues were removed, and frozen until the amount of dye was quantified. The dye content of the indicated tissues was examined spectroscopically by homogenizing the tissues, doing a lipid extraction of the homogenate, and measuring the optical density of the extract at a constant volume at the wavelength of the dye. Alternatively, a tritium labeled sample of Dye 1 was employed in the injection and the tissue homogenate was placed directly in a scintillation vial. The dye content was then measured by tritium count. […] (The values listed at times of 0.25 and 1.0 h after injection are comparative examples only, since there is either too high a concentration present in the brain, or too little in the tumor.)

RT-1 glioma cells = test: Survival study of rats implanted with RT-1 glioma cells; format: in vivo, rat; conditions: for Mean Survival Time: 2.5 μmol femoral artery
Experimental: A survival study was conducted using Dye 1 with 400 g rats implanted with RT-1 glioma cells at day 0 and treated with 2.5 μmol of dye delivered by femoral artery injection on day 12. The treated animals were irradiated one hour post injection using a quartz fiber optic with a diffusion tip with the dye laser described earlier as the light source. Total irradiation energy was 50 J cm^-2 at 785 nm. Three control groups were used: untreated animals, animals treated with dye only, and animals treated with light only. [The number of rats per group were: 10 for laser and dye treatment, 6 for control (no treatment), 14 for dye only and 6 for laser only.] Mean survival time data are compiled in Table VIII.

[4] = Distribution of Dye 5 in organ tissues of rats bearing an implanted mammarian tumor; format: in vivo, rat; conditions: peritoneum, prep L, optical density
[5] = carotid artery, 0.33 h, prep H, tritium counts
[6] = femoral artery, 0.25 h, prep D, tritium counts
[7] = femoral artery, 0.50 h, prep D, tritium counts
[8] = femoral artery, 1.0 h, prep (L), optical density (B)
[9] = femoral artery, 1.0 h, prep D, tritium counts

With `CC(C)(C)C1=CC(=CC=Cc2cc(C(C)(C)C)[s+]c(C(C)(C)C)c2)C=C(C(C)(C)C)S1.F[P-](F)(F)(F)(F)F` [C.E. 1, 2,6-Di-t-butyl-4-[3-(2,6-di-t-butyl-4H-thiopyran-4-ylidene)-1-propen-1-yl]thiopyrylium hexafluorophosphate, reference compound] the “Quantum efficiency of singlet oxygen generation Φ(1O2)” value (from here on “Quantum efficiency”) ([1]; air-saturated solution) was no more than 0.001 and the “Absorption maximum λmax” value ([2]; H2O) was 660 nm.
In the case of `CC(C)(C)C1=CC(=CC=Cc2cc(C(C)(C)C)[o+]c(C(C)(C)C)c2)C=C(C(C)(C)C)S1.F[P-](F)(F)(F)(F)F` [C.E. 2, 2,6-Di-t-butyl-4-[3-(2,6-di-t-butyl-4H-thiopyran-4-ylidene)-1-propen-1-yl]pyrylium hexafluorophosphate, reference compound], the “Quantum efficiency” value ([1]; air-saturated solution) was no more than 0.001 and the “Absorption maximum λmax” value ([2]; H2O) was 630 nm.
With `CC(C)(C)C1=CC(=CC=Cc2cc(C(C)(C)C)[se+]c(C(C)(C)C)c2)C=C(C(C)(C)C)[Te]1.[Cl-]` [Dye 1, 2,6-Di-t-butyl-4-[3-(2,6-di-t-butyl-4H-telluropyran-4-ylidene)-1-propen-1-yl]selenopyrylium chloride] the “nmol Dye 1/g of tissue, Brain” value [3, 5] was 0.9 nmol Dye 1/g of tissue, the “nmol Dye 1/g of tissue, Tumor” value [3, 5] was 16.0 nmol Dye 1/g of tissue and the “nmol Dye 1/g of tissue, Liver” value ([3]; femoral artery, 0.25 h, prep (H), tritium counts) was 5.4 nmol Dye 1/g of tissue. For the same molecule, the “nmol Dye 1/g of tissue, Brain” value [3, 6] was 46 nmol Dye 1/g of tissue, the “nmol Dye 1/g of tissue, Heart” value [3, 6] was 7.4 nmol Dye 1/g of tissue and the “nmol Dye 1/g of tissue, Liver” value [3, 6] was 9.1 nmol Dye 1/g of tissue. The “nmol Dye 1/g of tissue, Tumor” value [3, 6] was 45 nmol Dye 1/g of tissue, the “nmol Dye 1/g of tissue, Brain” value [3, 7] was 18.0 nmol Dye 1/g of tissue and the “nmol Dye 1/g of tissue, Liver” value [3, 7] was 17.0 nmol Dye 1/g of tissue. For the same molecule, the “nmol Dye 1/g of tissue, Tumor” value [3, 7] was 32.0 nmol Dye 1/g of tissue, the “nmol Dye 1/g of tissue, Heart” value [3, 8] was 1.1 nmol Dye 1/g of tissue and the “nmol Dye 1/g of tissue, Liver” value [3, 8] was 3.3 nmol Dye 1/g of tissue. For the same molecule, the “nmol Dye 1/g of tissue, Brain” value [3, 9] was 4.7 nmol Dye 1/g of tissue, the “nmol Dye 1/g of tissue, Heart” value [3, 9] was 1.3 nmol Dye 1/g of tissue and the “nmol Dye 1/g of tissue, Liver” value [3, 9] was 13.2 nmol Dye 1/g of tissue. The “passage of the blood-brain barrier” value ([3]; rat, arterial injection) was “appears to pass the blood-brain barrier”, the “concentrations of the dye in the tumor mass” value ([3]; short time periods following injection) was “reasonably high concentrations” and the “survival relative to animals in the control groups” value (RT-1 glioma cells; Dye 1 and light) was “prolonged survival”. The “Proportion of Animals Surviving” value (RT-1 glioma cells; Dye Only, day ≥15) was 0.50, the “Proportion of Animals Surviving” value (RT-1 glioma cells; Dye Only, day ≥19) was 0.43 and the “Proportion of Animals Surviving” value (RT-1 glioma cells; Dye Only, day ≥22) was 0.43. The “Proportion of Animals Surviving” value (RT-1 glioma cells; Dye Only, day ≥26) was 0.43, the “Proportion of Animals Surviving” value (RT-1 glioma cells; Dye Only, day ≥33) was 0.43 and the “Proportion of Animals Surviving” value (RT-1 glioma cells; Dye Only, day ≥40) was 0.43. The “Proportion of Animals Surviving” value (RT-1 glioma cells; Dye Only, day ≥47) was 0.00, the “Mean Survival Time” value (RT-1 glioma cells; Dye Only) was 27.9 days and the “Proportion of Animals Surviving” value (RT-1 glioma cells; Laser + Dye, day ≥15) was 0.70. For the same molecule, the “Proportion of Animals Surviving” value (RT-1 glioma cells; Laser + Dye, day ≥19) was 0.70, the “Proportion of Animals Surviving” value (RT-1 glioma cells; Laser + Dye, day ≥22) was 0.70 and the “Proportion of Animals Surviving” value (RT-1 glioma cells; Laser + Dye, day ≥26) was 0.60. For the same molecule, the “Proportion of Animals Surviving” value (RT-1 glioma cells; Laser + Dye, day ≥33) was 0.50, the “Proportion of Animals Surviving” value (RT-1 glioma cells; Laser + Dye, day ≥40) was 0.50 and the “Proportion of Animals Surviving” value (RT-1 glioma cells; Laser + Dye, day ≥47) was 0.30. The “Mean Survival Time” value (RT-1 glioma cells; Laser + Dye, 50 J cm^-2 at 785 nm) was 32.8 days and the animals still alive (RT-1 glioma cells; fully treated (laser + dye), from day 47 on) was 30%.
For `CC(C)(C)C1=CC(=CC=Cc2cc(C(C)(C)C)[se+]c(C(C)(C)C)c2)C=C(C(C)(C)C)[Se]1` [Dye 2], the “Quantum efficiency” value ([1]; air-saturated solution) was 0.014 and the “Absorption maximum λmax” value ([2]; H2O) was 730 nm.
With `CC(C)(C)C1=CC(=CC=Cc2cc(C(C)(C)C)[s+]c(C(C)(C)C)c2)C=C(C(C)(C)C)[Te]1` [Dye 3] the “Quantum efficiency” value ([1]; air-saturated solution) was 0.07 and the “Absorption maximum λmax” value ([2]; H2O) was 745 nm.
In the case of `CC(C)(C)C1=CC(=CC=Cc2cc(C(C)(C)C)[o+]c(C(C)(C)C)c2)C=C(C(C)(C)C)[Te]1.[O-][Cl+3]([O-])([O-])[O-]` [Dye 5, 2,6-Di-t-butyl-4-[3-(2,6-di-t-butyl-4H-telluropyran-4-ylidene)-1-propen-1-yl]pyrylium perchlorate], the “nmol Dye 1/g of tissue, Heart” value ([4]; 2 h) was 1.3 nmol Dye 1/g of tissue, the “nmol Dye 1/g of tissue, Kidney” value ([4]; 2 h) was ≤ 0.5 nmol Dye 1/g of tissue and the “nmol Dye 1/g of tissue, Liver” value ([4]; 2 h) was 4.1 nmol Dye 1/g of tissue. The “nmol Dye 1/g of tissue, Tumor” value ([4]; 2 h) was 5.5 nmol Dye 1/g of tissue, the “nmol Dye 1/g of tissue, Heart” value ([4]; 4 h) was ≤ 0.5 nmol Dye 1/g of tissue and the “nmol Dye 1/g of tissue, Kidney” value ([4]; 4 h) was ≤ 0.5 nmol Dye 1/g of tissue. The “nmol Dye 1/g of tissue, Liver” value ([4]; 4 h) was 3.8 nmol Dye 1/g of tissue and the “nmol Dye 1/g of tissue, Tumor” value ([4]; 4 h) was 3.3 nmol Dye 1/g of tissue.
For `CC(C=Cc1cc(C(C)(C)C)[te+]c(C(C)(C)C)c1)=C1C=C(C(C)(C)C)[Se]C(C(C)(C)C)=C1` [Dye 6], the “Quantum efficiency” value ([1]; air-saturated solution) was 0.01 and the “Absorption maximum λmax” value ([2]; CH2Cl2) was 803 nm.
With `CC(=CC(C)=C1C=C(C(C)(C)C)[Se]C(C(C)(C)C)=C1)c1cc(C(C)(C)C)[se+]c(C(C)(C)C)c1` [Dye 7] the “Quantum efficiency” value ([1]; air-saturated solution) was 0.005 and the “Absorption maximum λmax” value ([2]; MeOH) was 790 nm.
In the case of `CC(C)(C)C1=CC(=CC=Cc2cc(C(C)(C)C)[s+]c(C(C)(C)C)c2)C=C(C(C)(C)C)[Se]1` [Dye 8], the “Quantum efficiency” value ([1]; air-saturated solution) was 0.008 and the “Absorption maximum λmax” value ([2]; H2O) was 700 nm.
In the case of `C(=C1C=C(c2ccccc2)[Te]C(c2ccccc2)=C1)c1cc(-c2ccccc2)[te+]c(-c2ccccc2)c1` [Dye 10], the “Quantum efficiency” value ([1]; air-saturated solution) was 0.08 and the “Absorption maximum λmax” value ([2]; MeOH) was 760 nm.
In the case of `CC(=C1C=C(c2ccccc2)[Te]C(c2ccccc2)=C1)c1cc(-c2ccccc2)[te+]c(-c2ccccc2)c1` [Dye 11], the “Quantum efficiency” value ([1]; air-saturated solution) was 0.01 and the “Absorption maximum λmax” value ([2]; CH2Cl2) was 843 nm.
With `CC(=C1C=C(C(C)(C)C)[Te]C(C(C)(C)C)=C1)c1cc(C(C)(C)C)[te+]c(C(C)(C)C)c1` [Dye 13] the “Quantum efficiency” value ([1]; air-saturated solution) was 0.005 and the “Absorption maximum λmax” value ([2]; H2O) was 790 nm.
In the case of `CC(C)(C)C1=CC(=C(C#N)C=Cc2cc(C(C)(C)C)[te+]c(C(C)(C)C)c2)C=C(C(C)(C)C)[Te]1` [Dye 15], the “Quantum efficiency” value ([1]; air-saturated solution) was 0.08 and the “Absorption maximum λmax” value ([2]; MeOH) was 790 nm.
In the case of `CC(C)(C)C1=CC(=Cc2cc(CCCCO)[te+]c(CCCCO)c2)C=C(C(C)(C)C)[Se]1` [Dye 18], the “Quantum efficiency” value ([1]; estimated) was no less than 0.005 and the “Absorption maximum λmax” value ([2]; MeOH) was 690 nm.
